Test results published in patent US10688047B2, “Physically and chemically stable oral suspensions of givinostat” (ITALFARMACO SPA, priority 2015, dated 2020).
≈ marks a conversion by molar mass, not a printed value. Like-named read-outs stand apart in the source and are kept apart here.

Tests used:
IL-1β = settings: LPS-stimulated cultured human PBMCs; read-out: concentration reducing by 50% the release of intracellular interleukin IL-1β; cited from earlier work
[1] = Solubility of Givinostat (ITF2357) in water, buffers and aqueous vehicles; assay type: physicochemical
Description: Solubility of Givinostat was tested in aqueous vehicles at pH 6, containing Phosphate buffer. Tween 20 as wetting agent and either Sorbitol or Sucrose (40% w/v). To this aim, an amount of Givinostat sufficient to ensure saturation was mixed with 15 mL of each vehicle in separate vials. These vials were shaken at 25° C.±PC for at least 24 hours in order to obtain equilibrium. The saturated solution was then separated from the excess solid by filtration and Givinostat (ITF2357) was quantitated in the filtrate by UV-Vis spectrophotometric technique.
In table 4 solubility value determined on ITF 2357 saturated solution in different buffer at pH 4.5 are reported.
Solubility of ITF2357 determined in suspension vehicles having compositions as described in Example 1, thus containing Sorbitol at 40% w/v and Tartrate buffer, at different pH (pH range from 4 to 7 adjusted with Tartaric Acid or Sodium Hydroxide) are shown in Table 5.

[2] = as above; assay type: physicochemical; settings: phosphate buffer
interferon-γ (IFNγ) = settings: LPS-stimulated cultured human PBMCs; read-out: concentration reducing by 50% the production of IFNγ; cited from earlier work
[3] = Chemical stability of ITF2357 solutions (degradation on storage); assay type: physicochemical
Description: For example, solubility of ITF2357 in phosphate buffers at pH 2, 4.5, 6 and 8 is about 1.13-2.88-0.77 and 0.05 mg/mL respectively. Thus, it is technically possible to prepare aqueous solutions of ITF2357, having concentrations, e.g., between 0.02 and 0.3% w/v, intended for oral administration. However, because of the poor Givinostat solubility, large volume of an oral solution formulation would need to be administered to allow administration of effective drug doses and this pose patient compliance issues. […] In a preferred embodiment, the suspension according to the invention further comprising at least a buffering agent.

serum IFNγ = settings: mice, oral administration of 1.0 to 10 mg/kg; cited from earlier work
serum TNFα = settings: mice, oral administration of 1.0 to 10 mg/kg; cited from earlier work
[4] = at 20° C.; cited from earlier work

With `CCN(CC)Cc1ccc2cc(COC(=O)Nc3ccc(C(=O)NO)cc3)ccc2c1` [ITF2357, Givinostat] as the molecule, how does the IC50 (IL-1β) read?
Its IC50 is 12 nM.

And the solubility ([1]; acetate buffer, pH 4.5, aqueous buffer, thermodynamic from solid, Acetate buffer pH 4.5, read-out: ITF2357 solubility)?
The solubility was 5100 µg/mL (≈ 12100 µM).

And the solubility ([1]; aqueous vehicle, 25 °C, pH 6, aqueous with cosolvent or surfactant or cyclodextrin, thermodynamic from solid, Phosphate buffer pH 6, Tween 20, Sorbitol 10% (w/v), 25° C., read-out: ITF2357 Solubility)?
Its solubility is 2340 µg/mL (≈ 5550 µM).

What about the solubility ([1]; aqueous vehicle, 25 °C, pH 6, aqueous with cosolvent or surfactant or cyclodextrin, thermodynamic from solid, Phosphate buffer pH 6, Tween 20, Sorbitol 20% (w/v), 25° C., read-out: ITF2357 Solubility) of the same molecule?
The solubility was 2110 µg/mL (≈ 5000 µM).

And the solubility ([1]; aqueous vehicle, 25 °C, pH 6, aqueous with cosolvent or surfactant or cyclodextrin, thermodynamic from solid, Phosphate buffer pH 6, Tween 20, Sorbitol 30% (w/v), 25° C., read-out: ITF2357 Solubility)?
Its solubility is 2020 µg/mL (≈ 4790 µM).

And the solubility ([1]; aqueous vehicle, 25 °C, pH 6, aqueous with cosolvent or surfactant or cyclodextrin, thermodynamic from solid, Phosphate buffer pH 6, Tween 20, Sorbitol 40% (w/v), 25° C., read-out: ITF2357 Solubility)?
Its solubility is 1930 µg/mL (≈ 4580 µM).

What about the solubility ([1]; aqueous vehicle, 25 °C, pH 6, aqueous with cosolvent or surfactant or cyclodextrin, thermodynamic from solid, Phosphate buffer pH 6, Tween 20, Sucrose 40% (w/v), 25° C., read-out: ITF2357 Solubility) of the same molecule?
Its solubility is 3880 µg/mL (≈ 9190 µM).

What about the solubility ([1]; phosphate buffer pH 4.5) of the same molecule?
Its solubility is 2880 µg/mL (≈ 6830 µM).

What about the solubility ([1]; phosphate buffer, pH 4.5, aqueous buffer, thermodynamic from solid, phosphate buffer pH 4.5, read-out: solubility) of the same molecule?
Its solubility is about 2880 µg/mL (≈ 6830 µM).

What about the solubility ([1]; phosphate buffer, pH 8, aqueous buffer, phosphate buffer pH 8, read-out: solubility) of the same molecule?
The solubility was about 50 µg/mL (≈ 119 µM).

And the solubility ([1]; purified water, water, purified water, read-out: solubility)?
The solubility was about 2500 µg/mL (≈ 5930 µM).

What about the solubility ([1]; suspension vehicle, pH 4, aqueous with cosolvent or surfactant or cyclodextrin, thermodynamic from solid, Tartrate buffer pH = 4.0, Tween 20, Sorbitol 40% w/v, read-out: ITF2357 solubility) of the same molecule?
The solubility was 210 µg/mL (≈ 498 µM).

And the solubility ([1]; suspension vehicle, pH 5, aqueous with cosolvent or surfactant or cyclodextrin, thermodynamic from solid, Tartrate buffer pH = 5.0, Tween 20, Sorbitol 40% w/v, read-out: ITF2357 solubility)?
Its solubility is 150 µg/mL (≈ 356 µM).

And the solubility ([1]; suspension vehicle, pH 5.5, aqueous with cosolvent or surfactant or cyclodextrin, thermodynamic from solid, Tartrate buffer pH = 5.5, Tween 20, Sorbitol 40% w/v, read-out: ITF2357 solubility)?
The solubility was 160 µg/mL (≈ 380 µM).

What about the solubility ([1]; suspension vehicle, pH 6, aqueous with cosolvent or surfactant or cyclodextrin, thermodynamic from solid, Tartrate buffer pH = 6.0, Tween 20, Sorbitol 40% w/v, read-out: ITF2357 solubility) of the same molecule?
The solubility was 150 µg/mL (≈ 356 µM).

What about the solubility ([1]; suspension vehicle, pH 6.5, aqueous with cosolvent or surfactant or cyclodextrin, thermodynamic from solid, Tartrate buffer pH = 6.5, Tween 20, Sorbitol 40% w/v, read-out: ITF2357 solubility) of the same molecule?
The solubility was 160 µg/mL (≈ 380 µM).

And the solubility ([1]; suspension vehicle, pH 7, aqueous with cosolvent or surfactant or cyclodextrin, thermodynamic from solid, Tartrate buffer pH = 7.0, Tween 20, Sorbitol 40% w/v, read-out: ITF2357 solubility)?
The solubility was 150 µg/mL (≈ 356 µM).

What about the solubility ([1]; tartrate buffer, pH 4.5, aqueous buffer, thermodynamic from solid, Tartrate buffer pH 4.5, read-out: ITF2357 solubility) of the same molecule?
Its solubility is 230 µg/mL (≈ 546 µM).

And the solubility ([2]; pH 2, aqueous buffer, phosphate buffer pH 2)?
Its solubility is about 1130 µg/mL (≈ 2680 µM).

What about the solubility ([2]; pH 6, aqueous buffer, phosphate buffer pH 6) of the same molecule?
Its solubility is about 770 µg/mL (≈ 1830 µM).

What about the IC50 (interferon-γ (IFNγ)) of the same molecule?
Its IC50 is 25 nM.

And the degradation of solution ([3]; phosphate buffer pH 2, 6 days at 40° C.)?
Its degradation of solution is “about 6.3%”.

What about the degradation of solution ([3]; phosphate buffer pH 4.5, 6 days at 40° C.) of the same molecule?
The degradation of solution was about 0.8%.

And the degradation of solution ([3]; phosphate buffer pH 6, 6 days at 40° C.)?
Its degradation of solution is about 0.5%.

And the degradation of solution ([3]; phosphate buffer pH 8, 6 days at 40° C.)?
The degradation of solution was about 2.1%.

What about the “reduction of LPS-induced serum IFNγ” value (serum IFNγ) of the same molecule?
The value was “more than 50%”.

And the “reduction of LPS-induced serum TNFα” value (serum TNFα)?
Its value is “more than 50%”.

Which “parts of water in which 1 part dissolves” value [4] does the source give for `OC[C@H]1O[C@@](CO)(O[C@H]2O[C@H](CO)[C@@H](O)[C@H](O)[C@H]2O)[C@@H](O)[C@@H]1O` [Sucrose] here?
Its value is 0.3 parts of water.
